Here are results for three compounds from publication PMC8410599, “The structural basis of odorant recognition in insect olfactory receptors” (Nature, 2021).

Where two headings read alike, the source gives them in different places.

In general, EC50 refers to the concentration needed to bring the measured effect to its halfway point.

The target in one experiment is T1, MhOR5 (Machilis hrabei, UniProt Z9G0B3H7M0).
T1 construct: Lys2-Pro474; cryo-EM: N-terminal Strep II-sfGFP cleaved with HRV 3C, HEK293S GnTI-; calcium assay: pME18s vector without fluorescent marker, HEK293 with GCaMP6s; homotetramer
T1 sequence (Z9G0B3H7M0 6-478): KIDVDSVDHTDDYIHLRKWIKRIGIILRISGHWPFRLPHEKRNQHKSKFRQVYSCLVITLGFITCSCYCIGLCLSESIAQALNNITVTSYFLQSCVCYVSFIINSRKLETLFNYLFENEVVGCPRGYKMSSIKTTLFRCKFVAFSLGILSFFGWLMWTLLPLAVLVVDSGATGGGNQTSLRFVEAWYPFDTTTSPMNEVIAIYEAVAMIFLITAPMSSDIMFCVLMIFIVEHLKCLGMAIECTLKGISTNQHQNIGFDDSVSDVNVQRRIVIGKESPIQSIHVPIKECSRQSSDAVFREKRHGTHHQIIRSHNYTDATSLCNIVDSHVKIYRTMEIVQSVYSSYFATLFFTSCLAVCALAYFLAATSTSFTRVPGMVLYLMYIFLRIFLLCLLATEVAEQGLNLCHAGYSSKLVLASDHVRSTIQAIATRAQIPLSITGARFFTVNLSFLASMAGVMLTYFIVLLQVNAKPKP
The experiment is described as follows: GCaMP6s calcium flux, HEK293. It counts as cell-based. To be noted: agonist, sub-maximal efficacy; 2 mM CaCl2, pH 7.4.

The target of experiment [1] is T2, Orco (Apocrypta bakeri, UniProt B0FAQ4).
T2 construct: gene Or2; expressed in HEK293 cells with GCaMP6s; homotetramer
T2 sequence (B0FAQ4 1-474): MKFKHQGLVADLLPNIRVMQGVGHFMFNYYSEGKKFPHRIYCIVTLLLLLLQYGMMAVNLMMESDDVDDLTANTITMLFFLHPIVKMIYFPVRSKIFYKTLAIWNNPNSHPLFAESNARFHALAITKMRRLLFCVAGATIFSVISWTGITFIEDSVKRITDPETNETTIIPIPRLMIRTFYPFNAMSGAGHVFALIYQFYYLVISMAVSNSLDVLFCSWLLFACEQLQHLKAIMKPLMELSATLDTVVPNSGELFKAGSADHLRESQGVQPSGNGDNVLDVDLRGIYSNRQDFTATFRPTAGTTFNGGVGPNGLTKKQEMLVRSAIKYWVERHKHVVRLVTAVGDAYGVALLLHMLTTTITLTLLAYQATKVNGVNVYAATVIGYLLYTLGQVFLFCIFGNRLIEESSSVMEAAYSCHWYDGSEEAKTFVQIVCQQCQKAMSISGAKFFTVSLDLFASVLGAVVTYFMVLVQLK
The experiment is described as follows: cell-based. Also noted: species or system HEK293; GCaMP6s calcium fluorescence dose-response of olfactory receptor channel expressed in HEK293 cells. Here is the method:
(§1) Seven ligand concentrations were used for each transfection condition in sequential dilutions of 3, alongside a control well of only reading buffer. Ligands were dissolved in DMSO to 150 mM, then diluted with reading buffer to a highest final-well concentration of 0.5 mM (DMSO never exceeded 0.5%). Water-soluble ligands (arabinose, caffeine, denatonium, glucose, MSG, sucrose) were dissolved directly into reading buffer. If experimental data indicated a more sensitive response than this range, the concentration was adjusted accordingly. Ligand concentrations for mutants were the same as for the corresponding wild-type OR. Each plate contained a negative control of GCaMP6s transfected alone and exposed to eugenol for MhOR5 and VUAA1 for Orco experiments. […] A control of DMSO alone was also tested to ensure no activity effects were due to the solvent. Each concentration of ligand was applied to four technical replicates, which were averaged and considered a single biological replicate. The baseline fluorescence (F) was calculated as the average fluorescence of the 30 s before odour was added to the plate. Within each well, ΔF was calculated as the difference between the average of the last 10 s of fluorescence and the baseline F. ΔF/F was then calculated as the ΔF divided by the baseline fluorescence (F). […]

Experiment [2] addresses T2, Orco. The experiment is described as follows: cell-based. Set-up: species or system HEK293; GCaMP6s calcium fluorescence (ΔF/F) dose-response in HEK cells expressing the odorant receptor. On the procedure: as §1

On to `CCN(CC)C(=O)c1cccc(C)c1` [DEET], for which, at MhOR5, the EC50 entry is given as “MhOR5 was also activated by the insect repellent DEET”.

Regarding `CCc1ccc(NC(=O)CSc2nnc(-c3cccnc3)n2CC)cc1` [VUAA1], the EC50 at Orco [1] is 55.2 µM.

`CC(=O)c1ccccc1` [acetophenone]: the 50% effective concentration (EC50) at Orco [2] was above 500 µM.
